Results published in patent US6649615B2, “Method for inhibiting fibrogenesis” (Institute National de la Sante et de la Recherche Medicale …, priority 2002, dated 2003).
pEC50: −log10 of the molar value.

What was measured:
TIMP-1 mRNA = TIMP-1 mRNA expression by cultured HSC-T6 cells (Northern blot); type: cell-based, rat; settings: mean ±SEM
Description: (§1) The inventors used an established rat HSC cell line, named HSC-T6.
TIMP-1 increases fibrosis deposition by inhibiting its degradation by matrix metalloproteinases. The inventors observed in example 1 that noradrenergic antagonism in vivo led to a drastic decrease in liver TIMP-1 mRNA expression. They have further measured the effect of norepinephrin on TIMP-1 mRNA expression by cultured HSC-T6 cells. Total RNA was purified from cells exposed for 3, 6, or 24 hours to 100 nM norepinephrin. The RNAs were analyzed by Northern blot with a probe specific for rat TIMP-1. The blots were subsequently dehybridized and rehybridized with a probe to rat glyceraldehyde 3-phosphate dehydrogenase to ensure proper loading and transfer. TIMP-1/GADPH ratios were calculated and the results are shown respective to control values without norepinephrin.
Results are expressed as TIMP-1/GAPDH ratios relative to control values (mean ±SEM)

HSC-T6 = test: Hepatic stellate cell proliferation assay (tetrazolium dye reduction); type: cell-based, rat
Description: FIG. 3: Effect of norepinephrin on hepatic stellate cell (HSC) proliferation. Cells were exposed to increasing concentrations of norepinephrin for 2 days. Cell number was evaluated through the measurement of the reduction of the dye 3-(4,5-dimethylthiazol-2yl)-2,5 diphenyltetrazolium.
FIG. 4: Effect of prazosin on hepatic stellate cell proliferation induced by norepinephrin Cells were exposed to increasing concentrations of prazosin, either alone (open symbols), or in the presence of 100 nM norepinephrin (closed symbols). Cell number was evaluated through the measurement of the reduction of the dye 3-(4,5-dimethylthiazol-2yl)-2,5 diphenyltetrazolium. The marginal proliferation index was calculated as: (ODexperimental sample—ODday 0)/(ODcontrol—ODday 0), where OD is the optical density measured at the end of the experiment.
as §1
Cells were exposed to increasing concentrations of norepinephrin for 2 days. In some experiments, cells were also exposed to increasing concentrations of prazosin. Cell number was evaluated through the measurement of the reduction of the dye 3-(4,5-dimethylthiazol-2yl)-2,5 diphenyltetrazolium.

[1] = system: CCl4-induced liver fibrosis; test: CCl4-induced liver fibrosis in rats, fibrosis area by Picro Sirius red image analysis; type: in vivo, rat; settings: 2 weeks
Description: All experiments were carried out using accepted ethical guidelines. Male Wistar rats (Charles River, St Aubin-les-Elbeuf, France) weighing 200-250 g were used in this study. The animals had free access to food and drinking water. Fibrosis was induced by giving CCl4 (Sigma, St Quentin-Fallavier, France) mixed with olive oil (1vol: 5vol.) at 0.375 ml/kg body weight by gavage, three times a week, on Monday, Wednesday and Friday. Control animals for CCl4 received only olive oil.
Sympathetic chemical denervation was performed with OHDA (Sigma). OHDA was freshly prepared in saline containing 0.4% (w/v) ascorbic acid (Sigma). OHDA was administered intraperitoneally, twice a week on 2 consecutive days (Monday and Tuesday) at the dose of 25 mg/kg body weight. The first injection was given 4 to 6 hours before the first administration of CCl4. Control animals for OHDA received only the solvent.
Thus, 4 groups including each 6 animals could be distinguished. Group I: olive oil and saline alone; group II: olive oil and OHDA alone; group III: CCl4 with saline; group IV: CCl4 with OHDA. These animals were treated for 2 weeks. In another series of experiments, animals were similarly treated for 6 weeks. In that case, both control groups included only 3 animals.
Finally, other animals were treated with the specific α1-adrenergic receptor antagonist prazosin (Sigma), given in drinking water daily at a dose of 50 mg/l during 2 weeks. Group V animals received CCl4 alone, while group VI received CCl4 with prazosin. Both groups included 6 animals.
At the designated time points, the animals were sacrificed. Liver samples were taken from several lobes and either snap frozen in liquid nitrogen, cryopreserved in OCT compound (Sakura, Torrance, Calif.) and snap-frozen in liquid nitrogen-cooled isopentane, or fixed in buffered formalin.
This was done on formalin-fixed, paraffin-embedded sections stained with Picro Sirius red, using image analysis. All samples from a series of experiments were stained simultaneously. Quantitative data were obtained using a computerized image analysis system (Biocom 500, Les Ulis, France) including a personal computer (DESK PRO, Compaq, Houston, Tex.), a CCD video camera (Sony, Japan) and a Zeiss microscope (Jena, Germany). Sampling corresponded to 3 sections from 3 different lobes. The analysis was performed on an average of 50 fields per section using the ×4 objective. The whole surface of the sections was used for analysis with the exception of large centrolobular veins (diameter ≧150 μm) and large portal tracts. Fibrosis deposition was expressed as a percentage of stained areas on the total measured area.
Interassay variation was calculated in preliminary experiments and found to be 1.4%. When the percentage of reduction in areas of fibrosis consecutive to treatments was calculated, control values were first substracted.

[2] = system: CCl4-induced hepatocyte necrosis; test: Acute toxicity of CCl4: liver function tests and area of necrosis; settings: co-treatment with CCl4 vs CCl4 alone
Description: Routine liver function blood tests (bilirubin, alkaline phosphatase and transaminases) were performed on an automated analyzer.
Thus, groups of animals treated with 2 administrations of CCl4 with or without 2 injections of OHDA were sacrificed 24 hours after the second CCl4 treatment and evaluated for acute toxicity of CCl4 by serum tests and measurement of the area of necrosis on liver sections.
The percentage of necrosis area was determined on hematoxylin and eosin stained sections by image analysis.

type I collagen mRNA = test: Liver type I collagen transcripts (quantitative RT-PCR, in situ hybridization); type: in vivo, rat; settings: CCl4 with prazosin, 2 weeks
Description: In situ hybridization was performed on frozen sections according to a protocol described earlier, using [α^33P]UTP labeled riboprobes (Faouzi et al., 1999). The probe used was a 900 bp fragment of the rat α2(I) collagen cDNA, (Genovese et aL, 1984). The cDNA was subcloned into the pGEM5Z f(+) vector. Antisense and sense probes were generated by in vitro transcription. Their size was reduced to ˜250 nt by alkaline hydrolysis.
Total RNA was prepared from liver samples by the method of Chomczynski and Sacchi (1987), modified as described by Puissant and Houdebine (1990).
Type I collagen specific transcripts were quantified by a technique of quantitative RT-PCR, that has previously been described in detail (Bieche et al., 2000). Each sample was normalized on the basis of its expression of the RPLPO gene (also known as 36B4, encoding human acidic ribosomal phosphoprotein P0).

Molecule: NC[C@H](O)c1ccc(O)c(O)c1 [norepinephrin]
- TIMP-1/GAPDH ratio relative to control (TIMP-1 mRNA; Norepinephrin 100 nM, 3 h): 1,30 ± 0,15
- TIMP-1/GAPDH ratio relative to control (TIMP-1 mRNA; Norepinephrin 100 nM, 6 h): 1,38 ± 0,13
- TIMP-1/GAPDH ratio relative to control (TIMP-1 mRNA; Norepinephrin 100 nM, 24 h): 1,15 ± 0,18
- concentration at plateau of HSC-T6 proliferation increase (HSC-T6; 2 days exposure): 100 nM
- pEC50 (HSC-T6; Rattus norvegicus, HSC-T6, 48 h, 2 days exposure, mean of 5 independent experiments in triplicate, read-out: Half-maximal effect on HSC-T6 proliferation): 7.60

Molecule: COc1cc2nc(N3CCN(C(=O)c4ccco4)CC3)nc(N)c2cc1OC [prazosin, 1-(4-amino-6,7-dimethoxy-2-quinazolinyl)-4-(2-furanylcarbonyl) piperazine]
- fibrosis area (histomorphometry) ([1]; CCl4 with prazosin 50 mg/l in drinking water (group VI), CCl4 alone 2.35±0.41%): 0.89±0.21%
- decrease in fibrosis area ([1]; prazosin with CCl4 vs CCl4 alone): 83%
- effect on the acute toxicity of CCl4 (biological tests and necrosis area) [2]: did not decrease
- type I collagen transcripts by in situ hybridization (type I collagen mRNA): large decrease in transcripts
- effect on mitogenic effect of norepinephrin on HSC-T6 (HSC-T6; in the presence of 100 nM norepinephrin, 3 independent experiments in quadruplicate): abolished
- effect on HSC-T6 proliferation alone (HSC-T6; without norepinephrin): no effect

Molecule: TGFβ1: transforming growth factor β1, a major agonist of liver fibrogenesis
- TIMP-1/GAPDH ratio relative to control (TIMP-1 mRNA; TGFβ1 0,1 ng/ml, 3 h): 1,56 ± 0,20
- TIMP-1/GAPDH ratio relative to control (TIMP-1 mRNA; TGFβ1 0,1 ng/ml, 6 h): 1,38 ± 0,11
- TIMP-1/GAPDH ratio relative to control (TIMP-1 mRNA; TGFβ1 0,1 ng/ml, 24 h): 1,33 ± 0,09
